Tests used:
[1] = tested on: C57BL/6 mice, CCl4 liver fibrosis model; experiment: CCl4-induced liver fibrosis mouse model, collagen staining of liver sections; assay type: in vivo; settings: 17 mg/kg C1632 after each CCl4 injection
Method: C57BL/6 mice were divided into normal control group, CCl4 group and CCl4+C1632 group, with 7 mice in each group. The mice in the CCl4+C1632 group were injected with 17 mg/kg C1632 for treatment after each injection of CCl4. At the end of the experiment, the mice were sacrificed, and the obtained livers were fixed with 4% paraformaldehyde, dehydrated, embedded and sliced.
1. The collagen fibers in the tissue were stained blue through Masson staining, and the muscle fibers and cytoplasm were stained red through Masson staining. The sections were routinely deparaffinized to water and stained with Weigert's hematoxylin for 5 to 10 minutes. The sections were differentiated with 1% hydrochloric alcohol differentiation solution and washed with water. The sections was returned blue by using Masson bluing solution and washed with water for 1 min. The sections were stained with Ponceau fuchsin staining solution for 5 to 10 min, soaked in 1% glacial acetic acid for a moment, then washed with the phosphomolybdic acid solution for 1 to 2 min. The sections were stained in the aniline blue staining solution for 1 to 2 min after washed with 1% glacial acetic acid for 1 min. The sections were rinsed with 1% glacial acetic acid in three consecutive cylinders for about 8 s, then successively dehydrated by three consecutive cylinders of absolute ethanol for about 5 s, 10 s, and 30 s, and dehydrated by two cylinders of n-butyl alcohol for 30 s and 2 min in turn, and finally permeabilized by two cylinders of xylene for 5 min each time, and sealed with neutral gum.
2. To further verify the effect of C1632 on liver fibrosis, the above tissue sections were subjected to Van Gieson (VG) staining, which was a mature connective tissue staining method to distinguish collagen fibers from muscle fibers. Paraffin sections were deparaffinized into water, and then placed into VG staining solution prepared with acid fuchsin and picric acid, stained for 1 min, quickly washed with water, and quickly dehydrated in three cylinders of absolute ethanol. The sections were placed into xylene for permeabilizing, then sealed with neutral gum and photographed under a microscope.
The sections deparaffinized to water were oxidized with Gordon-Sweets oxidizer for 5 min. After washing with water, the sections were bleached with oxalic acid solution for 1 to 2 min. After washing with distilled water, the sections were mordanted with ferric ammonium sulfate solution for 5 min, then rinsed briefly with water. Gordon-Sweets silver ammonia solution was dropwise added for staining for 3 min. The sections were briefly washed with distilled water, reduced with Gordon-Sweets reducing agent for 1 min and rinsed under running water for 10 min. The nucleus was stained with nuclear fast red staining solution for 5-10 min. […]

MRC5 cells = experiment: VP16-induced cellular senescence, SA-β-gal staining, MRC5 cells; assay type: cell-based, Human; settings: C1632 120 μM, VP16 40 μM for 4-7 days, FIG. 1A, 1C
Method: MRC5 and BJ cells were cultured in DMEM low-glucose medium containing 10% FBS. The cells were passaged or plated at a ratio of 1:3.0.5×10^5 cells were plated in 12-well plates and in the next day treated with VP16 at a final concentration of 40 μM for 4-7 days to induce cellular senescence. A cellular senescence model was constructed. While inducing cellular senescence, C1632 with a final concentration of 120 μM is added. The effect of C1632 on the senescence of BJ and MRC5 cells was detected by SA-β-gal staining, and the effect of C1632 on cellular senescence was studied.

CKD mice (C57BL/6 male) = experiment: Purine (AP) feed-induced chronic kidney disease (CKD) mouse model; assay type: in vivo; settings: 68 mg/kg twice a week
Source text: The protocol for constructing a chronic kidney disease (CKD) mouse model in this example was as follows: 8-week-old C57BL/6 male mice were fed with a feed containing 2‰ purine for 1 month, then, fed with a feedcontaining 1.5‰ purine for 3 months. There were at least 10 mice in each group.
(§1) The mice were divided into three groups: (1) normal group; (2) AP+Saline group; (3) AP+C1632 group, 10 mice in each group. The CKD mice in group (3) were fed with a feed containing 2‰ AP for 1 month and then treated with C1632. C1632 was administered twice a week at a dose of 68 mg/kg of body weight each time.
as §1, with “(2) AP+saline” for “(2) AP+Saline”, “group […]” for “group (3)”, “time. During the subsequent 83 days of treatment, the survival of the mice was counted.” for “time.”
The mice were divided into three groups: (1) normal group; (2) AP+saline group; (3) AP+C1632 group, 10 mice in each group. The CKD mice in group (2) and group (3) were fed with a feed containing 2‰ AP for 1 month and then treated with C1632. C1632 was administered twice a week at a dose of 68 mg/kg of body weight each time. After 3 months, the mice were sacrificed, and the kidneys were removed for Masson staining.

senescent TC-1 cells = experiment: T cell killing assay (LDH release) on bleomycin-induced senescent TC-1 cells with immune cells from treated IPF mice; assay type: cell-based, mouse; settings: ratio 1:50, 4 h
Method: 1, The senescence of TC-1 cells was induced with bleomycin, and the senescence of TC-1 cells was reflected through SA-β-Gal staining (FIG. 4A).
2, T cell killing assay: Bleomycin-induced senescent TC1 cells were plated at 10, 000/well in 96-well plates. The cell culture supernatant was discarded the next day, and then, PBMCS, CD3^+ T cells, and CD8^+ T cells isolated from normal mice, saline treated idiopathic pulmonary fibrosis (IPF) mice and C1632-treated IPF mice were add at a ratio of 1:50. After incubation at 37° C. for 4 h, the supematantwas obtained after centrifugation. LDH enzyme was released from the killed senescent cells, and the killing effect of immune cells on senescent cells was detected by LDH kit. Bleomycin at a dose of 2 mg/kg was sprayed into the lungs of mice to construct IPF mouse model, each group of the above experiments had at least 6 mice.
Isolation and culture of CD8^+ T cells: Mouse spleens were ground under sterile conditions and filtered through a 200-mesh sieve. The filtered cells were sorted by CD8^+ T cell isolation kit (biolegend). The sorted T cells were cultured in PRMI1640 medium containing 10% FBS, 5 μg/mL anti-mouse CD28 antibody (biolegend), and 10 ng/mL IL-2 in the plates coated overnight with 5 μg/mL CD3 antibody (biolegend) until use.

## CC(=O)N(C)c1cccc(-c2ccc3nnc(C)n3n2)c1 [C1632]
[1]; twice a week for 6 weeks, FIG. 5
  Collagen fibers in liver tissue, Masson staining: can inhibit the expression of collagen fibers induced by CCl4
[1]; FIG. 6
  Collagen fiber levels in liver tissue, Van Gieson (VG) staining: significantly reduces collagen fiber levels
[1]; FIG. 7
  Reticular fibers in liver tissue, reticular fiber staining: can inhibit the expression of reticular fibers induced by CCl4
[1]; polarized light, FIG. 8
  Type I collagen production in liver, Sirius red staining: can significantly inhibit the production of type I collagen
MRC5 cells
  VP16-induced senescence (β-gal-positive cell rate) in MRC5 cells: inhibits VP16-induced senescence
CKD mice (C57BL/6 male); 83 days of treatment, FIG. 13
  Mortality of CKD model mice: significantly reduces the mortality
CKD mice (C57BL/6 male); after 3 months, FIG. 14
  Collagen fibers in the kidney, Masson staining (kidney fibrosis): significantly inhibits the level of collagen fibers
CKD mice (C57BL/6 male); vs control (saline) mice, FIG. 12
  Weight loss in CKD mice: significantly inhibits weight loss
Senescent TC-1 cells; CD3+ T cells from C1632-treated IPF mice vs saline-treated IPF mice, FIG. 4C
  Killing activity of CD3+ T cells against senescent TC-1 cells (LDH release): significantly enhanced killing activity
Senescent TC-1 cells; CD8+ T cells from C1632-treated IPF mice vs normal mice and saline-treated IPF mice, FIG. 4D
  Killing activity of CD8+ T cells against senescent cells (LDH release): significantly higher
Senescent TC-1 cells; PBMC from C1632-treated IPF mice vs saline-treated IPF mice, FIG. 4B
  Killing activity of PBMC against senescent TC-1 cells (LDH release): significantly enhanced killing activity
